Test systems include TK-10; KM12; 786-0; HOP-62; RPMI-8226; OVCAR-3; IGROV-1; CCRF-CEM; LOX IMVI; SK-MEL-5; SN12C; MDA-N; SK-MEL-28; HCC 2998; SNB-75; RXF 393; SF-295; OVCAR-5; NCI-H460; UACC-62.
Holding throughout (assay): inhibition of tumour cell growth, NCI panel, 48 h

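Cultured in 96-well plates, cells were exposed to test compound for 48 hours across five concentrations. The concentration for 50% growth inhibition is given as GI50.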 Activity calls are given as the source filed them. No stated cut-off is given here; in the data, active = GI50 up to about 1.1 µM and inactive = higher. Residues, ends and D or L forms follow the SMILES beside them. *: point of attachment. X38 = O=C(c1ccc(-c2ccc(Cl)cc2Cl)o1)*

On to `COC(=O)c1cc(C)ccc1C1CN=NC12Cc1cccc(C)c1C2=O` (stereo not drawn), for which the GI50 with TK-10 is 71.6 µM (inactive); in the assay on KM12 it was 26.2 µM (inactive); in the assay on 786-0, 56.6 µM (inactive); in the assay on HOP-62, 35.6 µM (inactive); in the assay on RPMI-8226, 16.8 µM (inactive); in the assay on OVCAR-3, 36.1 µM (inactive). The GI50 in the assay on IGROV-1 was 37.7 µM (inactive); with CCRF-CEM it was 29.3 µM (inactive); in the assay on LOX IMVI, 16.6 µM (inactive); in the assay on SK-MEL-5, 18 µM (inactive); in the assay on SN12C, 43.9 µM (inactive); in the assay on MDA-N, 34.8 µM (inactive). The GI50 in the assay on SK-MEL-28 was 27.3 µM (inactive); in the assay with HCC 2998 it was 37.9 µM (inactive); in the assay on SNB-75, 77.3 µM (inactive); in the assay on RXF 393 it was 25 µM (inactive); with SF-295 it was 36.1 µM (inactive); in the assay with OVCAR-5, 17.9 µM (inactive). The GI50 with NCI-H460 is 26.2 µM (inactive).

In the case of `C=CCN(Cc1ccncc1)C(=O)C(O)(c1ccccc1)c1ccccc1`, the GI50 in the assay with TK-10 was > 100 µM (inactive); in the assay on KM12 it was 35.2 µM (inactive); in the assay with 786-0, > 100 µM (inactive); in the assay on HOP-62, > 100 µM (inactive); in the assay with RPMI-8226, 22 µM (inactive); in the assay on OVCAR-3, 50.6 µM (inactive). The GI50 with IGROV-1 is > 100 µM (inactive); in the assay with UACC-62, 39.1 µM (inactive); in the assay on CCRF-CEM it was 35.8 µM (inactive); in the assay with LOX IMVI, 97.9 µM (inactive); in the assay on SK-MEL-5 it was 62.8 µM (inactive); with SN12C, > 100 µM (inactive). Also, the GI50 was 45.8 µM (inactive) in the assay with MDA-N; 76.4 µM (inactive) in the assay on SK-MEL-28; > 100 µM (inactive) in the assay with HCC 2998; 85.9 µM (inactive) in the assay with SNB-75; > 100 µM (inactive) in the assay on RXF 393; 57.3 µM (inactive) in the assay on SF-295. In the assay with OVCAR-5, the GI50 is > 100 µM (inactive).

Consider `Cc1cccc2oc3c(c(=O)c12)CC(O)C(C)(C)O3` (stereo not drawn), for which the GI50 in the assay with TK-10 is > 100 µM (inactive); in the assay on KM12, > 100 µM (inactive); in the assay on 786-0, > 100 µM (inactive); with HOP-62 it was > 100 µM (inactive); with RPMI-8226, 74.1 µM (inactive); with OVCAR-3, 99.1 µM (inactive). Moreover, the GI50 in the assay with IGROV-1 was > 100 µM (inactive); in the assay on UACC-62 it was > 100 µM (inactive); in the assay on CCRF-CEM it was 28.2 µM (inactive); in the assay with LOX IMVI, 86.5 µM (inactive); in the assay with SK-MEL-5, > 100 µM (inactive); in the assay with SN12C, > 100 µM (inactive). In addition, the GI50 is > 100 µM (inactive) in the assay with MDA-N; > 100 µM (inactive) with SK-MEL-28; > 100 µM (inactive) in the assay on HCC 2998; 74 µM (inactive) in the assay with RXF 393; > 100 µM (inactive) in the assay with SF-295; > 100 µM (inactive) in the assay on OVCAR-5. In addition, the GI50 with NCI-H460 was > 100 µM (inactive).

Take `CCOC(CCCN1CCC2(CC1)C(=O)N(C)CN2c1ccccc1)(OCC)c1ccc(F)cc1`: the GI50 in the assay with TK-10 is 7.66 µM (inactive); in the assay on KM12, 15.3 µM (inactive); in the assay with 786-0, 14.6 µM (inactive); in the assay with HOP-62, 4.6 µM (inactive); in the assay with RPMI-8226, 10.5 µM (inactive); in the assay on OVCAR-3 it was 13.6 µM (inactive). Besides, the GI50 in the assay on IGROV-1 was 8.41 µM (inactive); in the assay on UACC-62, 16 µM (inactive); in the assay on CCRF-CEM, 4.42 µM (inactive); in the assay with LOX IMVI, 16.1 µM (inactive); with SK-MEL-5, 3.45 µM (inactive); with SN12C, 10.3 µM (inactive). Besides, the GI50 in the assay with MDA-N was 11.6 µM (inactive); in the assay with SK-MEL-28, 16.8 µM (inactive); with HCC 2998, 8.85 µM (inactive); with SNB-75, 19.4 µM (inactive); in the assay on RXF 393, 19.2 µM (inactive); in the assay on SF-295, 12.7 µM (inactive). The GI50 with OVCAR-5 was 7.89 µM (inactive).

In the case of `CNC(=O)N1CN(c2ccccc2)C2(CCN(Cc3ccccc3)CC2)C1=O`, the GI50 in the assay with TK-10 was 62.5 µM (inactive); in the assay with KM12, 29.9 µM (inactive); with 786-0, > 100 µM (inactive); in the assay on HOP-62, > 100 µM (inactive); with RPMI-8226 it was 43.4 µM (inactive); in the assay on OVCAR-3 it was > 100 µM (inactive). Further, the GI50 in the assay with IGROV-1 was 5 µM (inactive); with UACC-62 it was 69.8 µM (inactive); in the assay on CCRF-CEM, 53.5 µM (inactive); in the assay on LOX IMVI, 50.5 µM (inactive); in the assay on SK-MEL-5, 56.1 µM (inactive); in the assay on SN12C it was > 100 µM (inactive). In addition, the GI50 was 29.2 µM (inactive) with MDA-N; > 100 µM (inactive) in the assay on SK-MEL-28; 9.84 µM (inactive) in the assay with HCC 2998; > 100 µM (inactive) in the assay with SNB-75; > 100 µM (inactive) in the assay on RXF 393; > 100 µM (inactive) with SF-295. The GI50 in the assay with OVCAR-5 was 1.05 µM (active).

For the molecule `COC(=O)C(CC(C)C)NC(=O)C(Cc1ccccc1)NC(=O)C1CCCN1C(=O)C(CO)NC(=O)c1ccc(-c2ccc(Cl)cc2Cl)o1` (stereo not drawn) (X38-SPFL-OMe; configuration not given here), the GI50 was 24.8 µM (inactive) in the assay on TK-10; 34 µM (inactive) with KM12; 25.1 µM (inactive) with 786-0; 17.1 µM (inactive) in the assay on RPMI-8226; 23.8 µM (inactive) with UACC-62; 36.8 µM (inactive) with CCRF-CEM. In addition, the GI50 in the assay on LOX IMVI was 21.8 µM (inactive); with SK-MEL-5, 17.3 µM (inactive); with SN12C it was 32.1 µM (inactive); in the assay with MDA-N, 35.5 µM (inactive); in the assay with SK-MEL-28 it was 52.1 µM (inactive); in the assay on HCC 2998, 13.2 µM (inactive). The GI50 in the assay on SNB-75 is 25.7 µM (inactive); in the assay with RXF 393, 17.8 µM (inactive); in the assay on SF-295, 19.5 µM (inactive); in the assay with OVCAR-5 it was 21.9 µM (inactive); in the assay with NCI-H460 it was 17.3 µM (inactive).

As to `C/C=C\C(CC(=O)O)CN1CCC2=C(C1)C(S(=O)(=O)C(F)(F)F)c1ccccc12` (stereo not drawn), the GI50 in the assay with KM12, in the assay on 786-0, in the assay on HOP-62, in the assay on RPMI-8226, in the assay on OVCAR-3 and with IGROV-1 was > 100 µM (inactive) each time. Moreover, the GI50 was > 100 µM (inactive) in the assay with UACC-62; > 10 µM (inactive) in the assay with CCRF-CEM; > 100 µM (inactive) in the assay with SK-MEL-5; > 100 µM (inactive) in the assay with MDA-N; > 100 µM (inactive) with SK-MEL-28; > 100 µM (inactive) with HCC 2998. In addition, the GI50 with SNB-75, in the assay on RXF 393, in the assay on SF-295, with OVCAR-5 and in the assay with NCI-H460 was > 100 µM (inactive) in each case.

In the case of `CC(C)c1[nH]nc(C(N)=O)c1/N=N/N(C)C`, the GI50 with TK-10 was 64.7 µM (inactive); in the assay on KM12, 61.1 µM (inactive); in the assay with 786-0, > 100 µM (inactive); with HOP-62 it was > 100 µM (inactive); with RPMI-8226 it was 60.7 µM (inactive); in the assay on OVCAR-3, > 100 µM (inactive). Besides, the GI50 in the assay on IGROV-1 is > 100 µM (inactive); in the assay on UACC-62 it was 67.9 µM (inactive); with CCRF-CEM, 36.6 µM (inactive); in the assay on LOX IMVI, 35.7 µM (inactive); in the assay on SK-MEL-5, 88.1 µM (inactive); with SN12C, 75.3 µM (inactive). The GI50 was > 100 µM (inactive) in the assay with MDA-N; > 100 µM (inactive) in the assay with SK-MEL-28; > 100 µM (inactive) with HCC 2998; 44.8 µM (inactive) in the assay on SNB-75; 63.1 µM (inactive) in the assay on RXF 393; 64.7 µM (inactive) in the assay with SF-295. In addition, the GI50 in the assay on NCI-H460 is 42.5 µM (inactive).

These data come from ChEMBL document CHEMBL1201862, “PubChem BioAssay data set” (2004).
